How the values were obtained:
[1] = system: mouse spleen cells (T-lymphocyte response to Con-A); assay: Concanavalin A assay (mouse spleen cell mitogen induced blastogenesis); format: cell-based; details: estimated IC50, Con-A 1.25 μg/ml, 3 days, MTT
From the text: iii Concanavalin A assay (the mouse spleen cell mitogen induced blastogenesis).
(§1) The MLR assay measures the effects of a study compound on the activation and antigen presentation of T-lymphocytes, therefore determining immunomodulatory properties. The mouse spleen cell mitogen-induced blastogenesis and the BUD-8 human fibroblast proliferation assays measure the effects of the compounds of the present invention on cellular proliferation of cells involved in the pathogenesis of autoimmune diseases. These two assays are appropriate as screens to ascertain anti-inflammatory and/or autoimmune beneficial activity and are art accepted for such purposes.
It is known that the induction and maintenance of most inflammatory diseases are typically due to the unrestricted activity of T-lymphocytes. Therefore, it is advantageous to identify compounds which are modulators of T-lymphocyte activity for eventual use in the regulation of inflammatory diseases, including acquired immune deficiency syndrome, psoriasis, systemic lupus, erythromatosus, and rheumatoid arthritis.
A simple method is used to screen compounds for their ability to modulate T-lymphocyte activity which comprises assessing the capacity of the compounds to alter the activation of murine spleen cells in response to T-lymphocyte mitogen activators, such as Conconavalin-A (Con-A). The method used to measure the effects of the compounds of the present invention on the blastogenic response of spleen cells to the T-lymphocyte mitogen (Con-A) is as follows:
The response of a mouse spleen cells to the T cell mitogen Con-A is a classical assay. In this assay, mice were euthanized by cervical dislocation and their spleens removed surgically. A single cell suspension of the spleens was prepared in culture medium (RPMI-1640 with hepes, supplemented with 10% calf serum, 2 mM glutamine, 500 units penicillin/streptomycin, and 4×10^-5 M 2-mercaptoethanol) using a Teflon pestle. The cells were centrifuged at 1500 RPM and the pellets resuspended in ACT (0.15M Tris, 0.14M Ammonium chloride, pH 7.2) in orde to lyse the red blood cells. After a five minutes incubation in a 37° C. waterbath, the cells were washed and resuspended in culture medium. The splenic lymphocytes were counted using an electronic Coulter Counter and diluted to 5.0×10^6 cells/ml.
The test articles were diluted in culture medium to the appropriate concentrations. 100 μl aliquots were distributed to triplicate wells in a 96-well microtiter plate. 50 μl of lymphocytes (2.5×10^5 cells) were added to each well. Control wells with vehicle and wells with media were also run. Plates were incubated for one hour at 37° C. 50 μl of Con-A ([…]) were then added to the wells to result in a final concentration of 1.25 μg/ml. After incubation at 37° C. with 5% carbon dioxide for 3 days, proliferation was measured by adding 20 μl of MTT (10 mg/mlin PBS) [3-(4,5-dimethyl-thiazol-2-yl)-2,5-diphenyl tetrazolium bromide] to each well. Plates were incubated for 4 hours at 37° C., after which 180 μl of 10% SDS in PBS were added. After an overnight incubation, the optical density (OD) of each well was read using a Molecular Devices microplate reader at 570-650 nm.
Duplicate cultures without Con-A were also set up. After 3 days of incubation, supernatants were assayed for lactate dehydrogenase activity to determine the viability of the cells, which is an indication of the toxicity of the test article on the splenic lymphocytes. 0.1 ml of supernatant was mixed with 0.1 ml of the LDH substrate mixture which contains 5.4×10^-2 M L(+) lactate, 6.6×10^-4 M 2-p-iodophenyl-3-p-nitrophenyl tetrazolium chloride, 2.8×10^-4 M phenazine methosulfate, 1.3×10^-3 M NAD, and 0.2M Tris buffer, pH 8.2. Plates were read immediately for 5 minutes at 490 nm using a Molecular Devices microplate reader.
The mean for each test article treated group was determined and compared to the mean of the control group. […]

[2] = system: T-lymphocytes (BALB/cBYJ responder spleen cells with mitomycin C treated C57BL/6J stimulator spleen cells); assay: Mixed lymphocyte response (MLR); format: cell-based, mouse; details: estimated IC50, 5 days at 37° C., MTT, 1, 10, 30, 100, and 300 μM
From the text: i Mixed lymphocyte response (MLR).
as §1
The MLR is a classical assay used to measure T cell function by studying the proliferation response of T cells which are activated in vitro by genetically disparate stimulator cells. This is accomplished by co-culturing spleen cells from two different strains of mice. Splenic T cell proliferation occurs as a result of cellular activation signals generated by the ongoing cellular interactions.
In performing MLR assays, BALB/cBYJ mice were euthanized by cervical dislocation and their spleens removed. Single cell suspensions were prepared in culture medium (RPMI-1640 with hepes supplemented with 10% calf serum, 2 mM glutamine, 500 units penicillin/streptomycin, and 4×10^-5 M 2-mercaptoethanol) using a Teflon pestle. The cells were centrifuged at 1500 RPM and the pellets resuspended in ACT (0.15M Tris, 0.14M ammonium chloride, pH 7.2) in order to lyse the red blood cells. After a 5 minute incubation at 37° C. in a waterbath, the cells were washed and resuspended in culture medium. The splenic lymphocytes were counted. C57BL/6J spleen cells, which were used as stimulator cells, were prepared in the same way. The stimulator cells were treated with 50 μg/ml of mitomycin C for 20 minutes at 37° C., then washed five times in culture medium. The proliferative response were measured by culturing 5×10^5 responder spleen cells with […] in 96-well microtiter plates in the presence or absence of test article or vehicle (DMSO). Syngeneic control cultures using mitomycin C treated normal BALB/c spleen cells as the stimulator cells were also run. All cultures were run in triplicate.
Solutions of compounds of the present invention in DMSO were prepared at a stock concentration of 300 mM. Solutions were made in a culture medium to a concentration of 1, 10, 30, 100, and 300 μM. The vehicle DMSO was used as a negative control.
After incubation for 5 days at 37° C. with 5% carbon dioxide, the amount of cell proliferation was measured by adding 20 μl of MTT (10 mg/ml in PBS) (3-[4,5-dimethylthiazol-2-yl]-2,5-diphenyl-tetrazolium bromide) to each well. Plates were incubated for 4 hours at 37° C., after which 180 μl of supernatant was removed and 180 μl of 10% SDS in PBS was added. After an overnight incubation, the optical density (OD) of each well was read on a Molecular Devices microplate reader at 570-650 nm.
The results were determined by calculating the difference between the means of the allogeneic cultures and the means of the syngeneic cultures for each test compound concentration. Differences of the test article groups were compared to the difference of the control group. The percent change from the control was determined and an IC50 estimated. The criteria used to establish activity levels were:
Sixteen (16) novel compounds were assayed for their ability to modulate a Mixed Lymphocyte Response in vitro. The test compounds were added to MLR cultures to give final concentrations of 1, 10, 30, 100, and 300 μM. The responses observed in the test article treated wells were compared to the control wells. […] Based on the estimated IC50, all the test compounds were strong inhibitors of the MLR.

[3] = Mus musculus, T-lymphocyte, 72 h
[4] = Mus musculus, T-lymphocyte, 120 h

Row | Molecule | IC50 [1, 3] [µM] | IC50 [2, 4] [µM] | IC50 [1] [µM] | IC50 [2] [µM]
1 | CC1(C)O[C@@H]2[C@H](O1)[C@@H](OCCCCN1CCCC1)O[C@@H]2[C@H](O)CO [Compound 29, 4'-(1-Pyrrolidinyl)butyl 2,3-O-(1-methylethylidene)-α-D-mannofuranoside] | 49 | 26 | – | –
2 | CCCCCCCCCOCCCO[C@H]1O[C@H]([C@@H](C)OCCCN(C)C)[C@@H]2OC(C)(C)O[C@H]12 [Compound 10, n-Nonyloxypropyl 2,3-O-(1-methylethylidene)-6-deoxy-5-O-(N,N-dimethylaminopropyl)-α-D-mannofuranoside] | 3 | < 1 | – | –
3 | CCCCCCCCCOCCCO[C@H]1O[C@H]([C@H](O)CN2CCOCC2)[C@@H]2OC(C)(C)O[C@H]12 [Compound 5, n-Nonyloxypropyl 2,3-O-(1-methylethylidene)-6-deoxy-6-morpholinyl-α-D-mannofuranoside] | 17 | 19 | – | –
4 | C[C@@H](OCCCN(C)C)[C@H]1O[C@H](OCCCc2ccccc2)[C@H]2OC(C)(C)O[C@H]21 [Compound 26, Phenylpropyl 6-deoxy 2,3-O-(1-methylethylidene)-5-O-3'-(N'N'-dimethylamino-n-propyl)-α-D-mannofuranoside] | 18 | < 1 | – | –
5 | CCCCCCCCCOCCCO[C@H]1O[C@H]([C@H](O)CN2CCCCC2)[C@@H]2OC(C)(C)O[C@H]12 [Compound 4, n-Nonyloxypropyl 2,3-O-(1-methylethylidene)-6-deoxy-6-piperidinyl-α-D-mannofuranoside] | 2.7 | 27 | – | –
6 | CCCCCCCCCOCCCO[C@H]1O[C@H]([C@H](C)N2CCCC2)[C@@H]2OC(C)(C)O[C@H]12 [Compound 15, n-Nonyloxypropyl 5,6-dideoxy-2,3-O-(1-methylethylidene)-5-pyrrolidinyl-β-L-gulofuranoside] | 2.8 | 0.99 | – | –
7 | CCCCCCCCCOCCCO[C@H]1O[C@H]([C@H](O)CN2CCCC2)[C@@H]2OC(C)(C)O[C@H]12 [Compound 3, n-Nonyloxypropyl 2,3-O-(1-methylethylidene)-6-deoxy-pyrrolidinyl-α-D-mannofuranoside] | 3.3 | < 1 | – | –
8 | CCCCCCCCCOCCCO[C@H]1O[C@H]([C@H](O)CN2CCCCCC2)[C@@H]2OC(C)(C)O[C@H]12 [Compound 6, n-Nonyloxypropyl 2,3-O-(1-methylethylidene)-6-deoxy-6-hexamethyleneimino-α-D-mannofuranoside] | 3.2 | < 0.5 | – | –
9 | C[C@@H](OCCN1CCCC1)[C@H]1O[C@H](OCCCc2ccccc2)[C@H]2OC(C)(C)O[C@H]21 [Compound 27, Phenylpropyl 6-deoxy 2,3-O-(1-methylethylidene)-5-O-(N'-ethylpyrrolidinyl)-α-D-mannofuranoside] | < 3 | 5.8 | – | –
10 | CCCCCCCCCOCCCO[C@H]1O[C@H]([C@@H](C)OCCN2CCCC2)[C@@H]2OC(C)(C)O[C@H]12 [Compound 12, n-Nonyloxypropyl 2,3-O-(1-methylethylidene)-6-deoxy-5-O-(N'-ethylpyrrolidinyl)-α-D-mannofuranoside] | 3.2 | < 0.5 | – | –
11 | n-Nonyloxypropyl 2,3-O-(1-methylethylidene)-6-deoxy-6-aminothylpyrrolidinyl-α-D-mannofuranoside [Compound 7] | – | – | 2.9 | 0.75
12 | CC1(C)O[C@@H]2[C@H](O1)[C@@H](OCCCc1ccccc1)O[C@@H]2[C@H](O)CNCCCN1CCCC1 [Compound 22, Phenylpropyl 6-deoxy 2,3-O-(1-methylethylidene)-6-aminopropylpyrrolidinyl-α-D-mannofuranoside] | 2.5 | 0.85 | – | –
13 | CC1(C)O[C@@H]2[C@H](O1)[C@@H](OCCCc1ccccc1)O[C@@H]2[C@H](O)CN1CCCC1 [Compound 20, Phenylpropyl 6-deoxy 2,3-O-(1-methylethylidene)-6-pyrrolidinyl-α-D-mannofuranoside] | 59 | < 1 | – | –
14 | CCCCCCCNC[C@@H](O)[C@H]1O[C@H](OCCCc2ccccc2)[C@H]2OC(C)(C)O[C@H]21 [Compound 21, Phenylpropyl 6-deoxy 2,3-O-(1-methylethylidene)-6-heptylamino-α-D-mannofuranoside] | 7 | < 1 | – | –
15 | CCCCCCCCCOCCCO[C@H]1O[C@H]([C@H](O)CNCCCCCCC)[C@@H]2OC(C)(C)O[C@H]12 [Compound 8, n-Nonyloxypropyl 2,3-(1-methylethylidene)-6-deoxy-6-aminoheptyl-α-D-mannofuranoside] | 17 | < 1 | – | –
16 | C[C@@H]([C@H]1O[C@H](OCCCc2ccccc2)[C@H]2OC(C)(C)O[C@H]21)N1CCCC1 [Compound 24, Phenylpropyl 5,6-dideoxy 2,3-O-(1-methylethylidene)-5-pyrrolidinyl-β-L-gulofuranoside] | 28 | < 1 | – | –
